Source: patent EP1935887A1, “Heterocyclic substituted carbonyl derivatives and their use as dopamine D3 receptor ligands” (Aventis Pharmaceuticals Inc., priority 2001, dated 2002)

These compounds were tested against T1, Cloned Human Dopamine D3 Receptors (Homo sapiens, UniProt P35462) (assay: [N-Methyl-3H]Spiroperidol binding to cloned human dopamine D3 receptors). Details: D3 Ki (nM).
T1 construct: expressed in transfected cells; membrane homogenate
How it was run: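 Membranes from CHO cells stably expressing human D3 receptor, homogenised in 10% DMSO and stored at -80°C. Binding uses [N-methyl-3H]spiroperidol in Tris buffer, pH 7.7.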

T1 sequence (P35462 whole entry): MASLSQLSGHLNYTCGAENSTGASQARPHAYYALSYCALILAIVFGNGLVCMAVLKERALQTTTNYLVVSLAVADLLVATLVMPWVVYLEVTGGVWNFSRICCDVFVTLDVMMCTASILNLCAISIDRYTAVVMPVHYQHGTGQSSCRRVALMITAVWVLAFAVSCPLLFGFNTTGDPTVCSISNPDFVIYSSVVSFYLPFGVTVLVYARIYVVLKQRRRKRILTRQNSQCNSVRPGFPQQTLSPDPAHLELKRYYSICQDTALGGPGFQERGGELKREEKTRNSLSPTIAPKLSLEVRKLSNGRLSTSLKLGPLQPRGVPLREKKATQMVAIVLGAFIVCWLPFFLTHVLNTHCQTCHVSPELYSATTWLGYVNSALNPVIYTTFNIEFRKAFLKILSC

Structure (SMILES) | Ki
CCC1CCC(NC(=O)C2CC2CN2CCC(c3nn(-c4ccc(C(F)(F)F)cc4)c4ccccc34)CC2)CC1 (stereo not drawn) [compound 830133] | 176 nM
C[C@H]1CC[C@H](NC(=O)[C@@H]2C[C@H]2CN2CCN(c3noc4ccsc34)CC2)CC1 [compound 831083] | 3.2 nM

Same assay, conditions: Table 2; unit inferred; read-out: d3Ki

Ki | Structure (SMILES)
15.8 nM | C[C@H]1CC[C@H](NC(=O)[C@@H]2C[C@H]2CN2CCN(c3cccc4cccnc34)CC2)CC1 [compound 827253]
19.5 nM | Cc1ccc(N2CCCN(C[C@@H]3C[C@H]3C(=O)N[C@H]3CC[C@H](C)CC3)CC2)nc1 [compound 827731]
10.5 nM | CC[C@H]1CC[C@H](NC(=O)[C@@H]2C[C@H]2CN2CCCN(c3ccc(C)cn3)CC2)CC1 [compound 827732]
1.19 nM | CC[C@H]1CC[C@H](NC(=O)[C@@H]2C[C@H]2CN2CCCN(c3ncccc3Cl)CC2)CC1 [compound 827733]
19.7 nM | CCC1CCC(NC(=O)C2CC2CN2CCCN(c3ccccn3)CC2)CC1 (stereo not drawn) [compound 827800]

Same assay, conditions: read-out: D3 Ki

Structure (SMILES) | Ki
CC[C@H]1CC[C@H](NC(=O)[C@@H]2C[C@H]2CN2CCN(c3cnccn3)CC2)CC1 [compound 827226] | 16.1 nM
CC[C@H]1CC[C@H](NC(=O)[C@@H]2C[C@H]2CN2CCN(c3cccc(C(F)(F)F)c3)CC2)CC1 [compound 827229] | 1.71 nM

More lines, now with the values ahead:

Ki | Structure (SMILES)
306 nM | O=C([C@@H]1C[C@H]1CN1CCC(c2noc3ccsc23)CC1)N1CCOCC1 [compound 829461]
350 nM | CN(CCc1ccccn1)C(=O)C1CC1CN1CCC(c2noc3ccsc23)CC1 (stereo not drawn) [compound 829593]
67.6 nM | CCC1CCC(NC(=O)C2CC2CN2CCCN(c3ccc4c(C#N)n[nH]c4n3)CC2)CC1 (stereo not drawn) [compound 830122]
15.5 nM | O=C(NCCCN1CCOCC1)[C@@H]1C[C@H]1CN1CCC(c2noc3ccsc23)CC1 [compound 831046]
11.3 nM | CN(C)CCCNC(=O)[C@@H]1C[C@H]1CN1CCC(c2noc3ccsc23)CC1 [compound 831048]
4.17 nM | O=C(NCCCc1ccncc1)[C@@H]1C[C@H]1CN1CCC(c2noc3ccsc23)CC1 [compound 831197]
68.6 nM | O=C(NCCCn1cccn1)[C@@H]1C[C@H]1CN1CCC(c2noc3ccsc23)CC1 [compound 831273]
5.15 nM | COc1ccc2[nH]cc(CCNC(=O)[C@@H]3C[C@H]3CN3CCC(c4noc5ccsc45)CC3)c2c1 [compound 831275]

Same assay, conditions: read-out: d3Ki

Ki | Structure (SMILES)
99.2 nM | CC[C@H]1CC[C@H](NC(=O)[C@@H]2C[C@H]2CN2CCN(c3ccc(C(F)(F)F)cn3)CC2)CC1 [compound 827221]
16.1 nM | CC[C@H]1CC[C@H](NC(=O)[C@@H]2C[C@H]2CN2CCN(c3cnccn3)CC2)CC1 [compound 827226]
62 nM | CC[C@H]1CC[C@H](NC(=O)[C@@H]2C[C@H]2CN2CCN(C(=O)c3ccco3)CC2)CC1 [compound 827228]
1.71 nM | CC[C@H]1CC[C@H](NC(=O)[C@@H]2C[C@H]2CN2CCN(c3cccc(C(F)(F)F)c3)CC2)CC1 [compound 827229]
2.09 nM | CC[C@H]1CC[C@H](NC(=O)[C@@H]2C[C@H]2CN2CCN(c3ccccc3)CC2)CC1 [compound 827230]
27.7 nM | CC[C@H]1CC[C@H](NC(=O)[C@@H]2C[C@H]2CN2CCN(c3ccc(OC)cc3)CC2)CC1 [compound 827233]
3.15 nM | CC[C@H]1CC[C@H](NC(=O)[C@@H]2C[C@H]2CN2CCN(c3cccc(OC)c3)CC2)CC1 [compound 827234]
4.49 nM | CC[C@H]1CC[C@H](NC(=O)[C@@H]2C[C@H]2CN2CCN(c3ccc(F)cc3)CC2)CC1 [compound 827235]
12.9 nM | CC[C@H]1CC[C@H](NC(=O)[C@@H]2C[C@H]2CN2CCN(c3ncccn3)CC2)CC1 [compound 827236]
2.48 nM | CC[C@H]1CC[C@H](NC(=O)[C@@H]2C[C@H]2CN2CCN(c3ccc(Cl)c(C(F)(F)F)c3)CC2)CC1 [compound 827238]
197 nM | CC[C@H]1CC[C@H](NC(=O)[C@@H]2C[C@H]2CN2CCN(c3ccc([N+](=O)[O-])cc3)CC2)CC1 [compound 827244]
43 nM | CC[C@H]1CC[C@H](NC(=O)[C@@H]2C[C@H]2CN2CCN(c3ccc(C(C)=O)cc3)CC2)CC1 [compound 827245]
3.45 nM | CC[C@H]1CC[C@H](NC(=O)[C@@H]2C[C@H]2CN2CCN(c3ccc(Cl)c(Cl)c3)CC2)CC1 [compound 828393]
